ChEMBL document CHEMBL1201862, “PubChem BioAssay data set” (2004)
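Compound exposure: 48 hours, 5 concentrations, 96-well plates. GI50: concentration for 50% inhibition of growth.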 Activity calls are given as the source filed them. Cut-off read from the data, not from the text of the source: active = GI50 up to about 1.1 µM and inactive = higher.

Tests used:
Assay in all cases: NCI tumour cell line growth inhibition, 48 h
SN12C = system: SN12C
TK-10 = system: TK-10
HOP-62 = system: HOP-62
CCRF-CEM = system: CCRF-CEM
M14 = system: M14
MDA-MB-435 = system: MDA-MB-435
A498 = system: A498
SF-539 = system: SF-539
OVCAR-4 = system: OVCAR-4
BT-549 = system: BT-549
NCI-H23 = system: NCI-H23
SK-MEL-2 = system: SK-MEL-2
IGROV-1 = system: IGROV-1
HCT-116 = system: HCT-116
A549 = system: A549
NCI-H460 = system: NCI-H460
SK-MEL-5 = system: SK-MEL-5
MDA-N = system: MDA-N
NCI-H226 = system: NCI-H226

| SMILES | GI50 (SN12C) | GI50 (TK-10) | GI50 (HOP-62) | GI50 (CCRF-CEM) | GI50 (M14) | GI50 (MDA-MB-435) | GI50 (A498) | GI50 (SF-539) | GI50 (OVCAR-4) | GI50 (BT-549) | GI50 (NCI-H23) | GI50 (SK-MEL-2) | GI50 (IGROV-1) | GI50 (HCT-116) | GI50 (A549) | GI50 (NCI-H460) | GI50 (SK-MEL-5) | GI50 (MDA-N) | GI50 (NCI-H226) |
| --- | --- | --- | --- | --- | --- | --- | --- | --- | --- | --- | --- | --- | --- | --- | --- | --- | --- | --- | --- |
| NC(=O)c1nnc2cc(F)ccc2c1N | > 100 µM (inactive) | 76.2 µM (inactive) | > 100 µM (inactive) | > 100 µM (inactive) | > 100 µM (inactive) | > 100 µM (inactive) | 91.6 µM (inactive) | > 100 µM (inactive) | > 100 µM (inactive) | 84.9 µM (inactive) | > 100 µM (inactive) | > 100 µM (inactive) | > 100 µM (inactive) | > 100 µM (inactive) | > 100 µM (inactive) | > 100 µM (inactive) | > 100 µM (inactive) | > 100 µM (inactive) | 58.2 µM (inactive) |
| C=CC[C@@]1(C)CCCCCCCCC[C@@](C)(CC=C)C1=O | 29.2 µM (inactive) | 99.1 µM (inactive) | 38.4 µM (inactive) | 20.2 µM (inactive) | 28.6 µM (inactive) | 46.9 µM (inactive) | 17.1 µM (inactive) | 41.1 µM (inactive) | > 100 µM (inactive) | 27.4 µM (inactive) | 25.5 µM (inactive) | 17.8 µM (inactive) | 31 µM (inactive) | 32.9 µM (inactive) | 40 µM (inactive) | 24.4 µM (inactive) | 16 µM (inactive) | 50.8 µM (inactive) | 23.8 µM (inactive) |
| Cc1c(C#N)c2nnn(-c3cccc(Cl)c3)c(=O)n2c1-c1ccccc1 | 3.83 µM (inactive) | 9.91 µM (inactive) | 0.891 µM (active) | 3.66 µM (inactive) | 4.17 µM (inactive) | 0.566 µM (active) | 2.36 µM (inactive) | 1.59 µM (inactive) | 8.61 µM (inactive) | 18.1 µM (inactive) | 8.77 µM (inactive) | 1.27 µM (inactive) | 2.54 µM (inactive) | 2.03 µM (inactive) | 4.5 µM (inactive) | 3.15 µM (inactive) | 3.84 µM (inactive) | 0.428 µM (active) | 2.25 µM (inactive) |
| C/C=C(/C)C(=O)O[C@H]1CCN2CC=C(COC(=O)[C@@](O)([C@H](C)OC)C(C)(C)O)[C@H]12 | > 100 µM (inactive) | > 100 µM (inactive) | > 100 µM (inactive) | > 100 µM (inactive) | > 100 µM (inactive) | > 100 µM (inactive) | > 100 µM (inactive) | > 100 µM (inactive) | > 100 µM (inactive) | > 100 µM (inactive) | > 100 µM (inactive) | > 100 µM (inactive) | > 100 µM (inactive) | > 100 µM (inactive) | > 100 µM (inactive) | > 10 µM (inactive) | > 100 µM (inactive) | > 100 µM (inactive) | > 100 µM (inactive) |
| COC(=O)C(Cc1ccc2c(c1)CCCC2)Cc1cc2c(cc1C(O)OC)CCC2 (stereo not drawn) | 96.2 µM (inactive) | 62.2 µM (inactive) | > 100 µM (inactive) | 58.9 µM (inactive) | 93.3 µM (inactive) | 38.2 µM (inactive) | > 100 µM (inactive) | 39.1 µM (inactive) | 80 µM (inactive) | > 100 µM (inactive) | 73.5 µM (inactive) | > 100 µM (inactive) | > 100 µM (inactive) | 39.6 µM (inactive) | 41.5 µM (inactive) | 35.8 µM (inactive) | 33.4 µM (inactive) | 56.8 µM (inactive) | > 100 µM (inactive) |
| CC(C)Oc1c(N(Cc2ccccc2)c2ccccc2C2SCCCS2)c(=O)c1=O | 6.17 µM (inactive) | 8.63 µM (inactive) | 3.96 µM (inactive) | 5.87 µM (inactive) | 3.65 µM (inactive) | 2.74 µM (inactive) | 6.9 µM (inactive) | 2.76 µM (inactive) | 9.04 µM (inactive) | 6.38 µM (inactive) | 3.97 µM (inactive) | 3.32 µM (inactive) | 3.32 µM (inactive) | 4.05 µM (inactive) | 5.36 µM (inactive) | 3.69 µM (inactive) | 4.32 µM (inactive) | 3.1 µM (inactive) | 6.05 µM (inactive) |
| CC(=O)OC1COC(n2c(-c3ccc(Cl)cc3)cc(-c3ccccc3)c(C#N)c2=S)C(OC(C)=O)C1OC(C)=O (stereo not drawn) | 9.25 µM (inactive) | 31.6 µM (inactive) | 9.23 µM (inactive) | 31.8 µM (inactive) | 17.2 µM (inactive) | 7.19 µM (inactive) | 17.4 µM (inactive) | 4.42 µM (inactive) | 2.92 µM (inactive) | 2.06 µM (inactive) | 12.2 µM (inactive) | 12 µM (inactive) | 18.2 µM (inactive) | 5.52 µM (inactive) | 13.4 µM (inactive) | 19.1 µM (inactive) | 8.51 µM (inactive) | 22.1 µM (inactive) | 16.3 µM (inactive) |
